Test results: the NIST ThermoML archive (doi:10.1016/j.jct.2018.07.012)

Test: mn = molality of the nth substance listed, in mol/kg
Conditions: for surface tension liquid-gas: Maximal bubble pressure; for mass density: 100 kPa, Liquid, Vibrating tube method

O [water] + CC(=O)[O-].CCCn1cc[n+](C)c1
m2 = 0
Conditions	mass density [kg/m3]	surface tension liquid-gas [mN/m]
288.15 K	–	73.5
293.15 K	–	72.8
298.15 K	–	72
303.15 K	–	71.2
308.15 K	994.06	70.4
313.15 K	–	69.6
318.15 K	–	68.7

O [water] + CC(=O)[O-].CCCCC[n+]1ccn(C)c1
m2 = 0
Conditions	mass density [kg/m3]	surface tension liquid-gas [mN/m]
288.15 K	–	73.5
293.15 K	–	72.8
298.15 K	–	72
303.15 K	–	71.2
308.15 K	994.06	70.4
313.15 K	–	69.6
318.15 K	–	68.7

CC(=O)[O-].CCCCC[n+]1ccn(C)c1 [1-methyl-3-pentylimidazolium acetate] + O
Conditions	mass density [kg/m3]	surface tension liquid-gas [mN/m]
288.15 K, m1 = 0.0113	1000.14	73.1
288.15 K, m1 = 0.0167	1000.28	73
288.15 K, m1 = 0.0278	1000.42	72.7
288.15 K, m1 = 0.0448	1000.64	72.2
288.15 K, m1 = 0.1117	1001.58	70.7
288.15 K, m1 = 0.1681	1002.3	69.3
288.15 K, m1 = 0.2233	1002.98	68
288.15 K, m1 = 0.2831	1003.85	66.7
288.15 K, m1 = 0.3358	1004.57	65.4
288.15 K, m1 = 0.3919	1005.36	64.1
288.15 K, m1 = 0.448	1006.14	62.9
288.15 K, m1 = 0.5032	1006.89	61.9
293.15 K, m1 = 0.0113	999.1	72.4
293.15 K, m1 = 0.0167	999.21	72.3
293.15 K, m1 = 0.0278	999.36	71.9
293.15 K, m1 = 0.0448	999.54	71.4
293.15 K, m1 = 0.1117	1000.47	69.9
293.15 K, m1 = 0.1681	1001.12	68.5
293.15 K, m1 = 0.2233	1001.89	67.4
293.15 K, m1 = 0.2831	1002.69	66
293.15 K, m1 = 0.3358	1003.38	64.7
293.15 K, m1 = 0.3919	1004.16	63.5
293.15 K, m1 = 0.448	1004.92	62.2
293.15 K, m1 = 0.5032	1005.68	61.2
298.15 K, m1 = 0.0113	997.82	71.6
298.15 K, m1 = 0.0167	997.9	71.4
298.15 K, m1 = 0.0278	998.08	71.1
298.15 K, m1 = 0.0448	998.25	70.7
298.15 K, m1 = 0.1117	999.05	69.3
298.15 K, m1 = 0.1681	999.71	67.9
298.15 K, m1 = 0.2233	1000.49	66.7
298.15 K, m1 = 0.2831	1001.32	65.4
298.15 K, m1 = 0.3358	1002.01	64.1
298.15 K, m1 = 0.3919	1002.76	62.9
298.15 K, m1 = 0.448	1003.5	61.7
298.15 K, m1 = 0.5032	1004.2	60.7
303.15 K, m1 = 0.0113	996.33	70.8
303.15 K, m1 = 0.0167	996.39	70.6
303.15 K, m1 = 0.0278	996.54	70.4
303.15 K, m1 = 0.0448	996.73	69.9
303.15 K, m1 = 0.1117	997.44	68.5
303.15 K, m1 = 0.1681	998.19	67
303.15 K, m1 = 0.2233	998.96	65.9
303.15 K, m1 = 0.2831	999.76	64.6
303.15 K, m1 = 0.3358	1000.44	63.3
303.15 K, m1 = 0.3919	1001.15	62.1
303.15 K, m1 = 0.448	1001.84	60.8
303.15 K, m1 = 0.5032	1002.51	59.8
308.15 K, m1 = 0.0113	994.67	69.9
308.15 K, m1 = 0.0167	994.74	69.8
308.15 K, m1 = 0.0278	994.85	69.5
308.15 K, m1 = 0.0448	995.01	69.1
308.15 K, m1 = 0.1117	995.82	67.6
308.15 K, m1 = 0.1681	996.5	66.2
308.15 K, m1 = 0.2233	997.24	65.1
308.15 K, m1 = 0.2831	998.03	63.9
308.15 K, m1 = 0.3358	998.7	62.7
308.15 K, m1 = 0.3919	999.4	61.4
308.15 K, m1 = 0.448	1000.08	60.2
308.15 K, m1 = 0.5032	1000.73	59.2
313.15 K, m1 = 0.0113	992.81	69.1
313.15 K, m1 = 0.0167	992.88	69
313.15 K, m1 = 0.0278	992.97	68.7
313.15 K, m1 = 0.0448	993.11	68.2
313.15 K, m1 = 0.1117	993.98	66.8
313.15 K, m1 = 0.1681	994.62	65.5
313.15 K, m1 = 0.2233	995.34	64.4
313.15 K, m1 = 0.2831	996.08	63.2
313.15 K, m1 = 0.3358	996.74	61.9
313.15 K, m1 = 0.3919	997.43	60.7
313.15 K, m1 = 0.448	998.1	59.5
313.15 K, m1 = 0.5032	998.74	58.6
318.15 K, m1 = 0.0113	990.79	68.3
318.15 K, m1 = 0.0167	990.87	68.2
318.15 K, m1 = 0.0278	990.95	67.9
318.15 K, m1 = 0.0448	991.1	67.5
318.15 K, m1 = 0.1117	991.99	66.1
318.15 K, m1 = 0.1681	992.61	64.8
318.15 K, m1 = 0.2233	993.28	63.6
318.15 K, m1 = 0.2831	994.03	62.3
318.15 K, m1 = 0.3358	994.67	61.1
318.15 K, m1 = 0.3919	995.33	60
318.15 K, m1 = 0.448	995.97	58.9
318.15 K, m1 = 0.5032	996.58	57.9
